From US20260355184A1, “SMALL MOLECULE DEGRADERS OF HIV-1 TAT PROTEIN” (priority 2022, published 2026) come the findings set out here.

Where only a bound is given, the exact number is not on record here.

The subject of the first series is HIV NL4.3 strain. Briefly: HIV infectivity assay, reporter cell line HeLa-CD4-LTR-LacZ, β-Gal activity (Tat protein inhibition). In kind it is cell-based, HIV-1 (NL4.3). To be noted: Human immunodeficiency virus 1, read-out: Infectivity IC50. As to the method:
(§1) Next, the activity of these leads against HIV infection was evaluated using the reporter cell line HeLa-CD4-LTR-LacZ, which stably expresses the β-galactosidase (β-Gal) gene under the control of the HIV 5′ LTR. The HIV NL4.3 strain was used for these studies and β-Gal activity was measured 72 hrs post infection (FIG. 3A). Cytotoxicity assays using Cell-Titer-Glo were performed in parallel to assess cell viability (FIG. 3A). […] Their anti-HIV activity was further assessed in acute replication of Jurkat T cells with the NL4.3 strain (FIG. 3A). […] These OM10.1 cells contain a single integrated wild-type provirus, while ACH-2 cells contain a single integrated provirus with a TAR mutation C37T, defective Tat-TAR feedback loop (FIG. 3B).
A word on the IC50: it is the point on the concentration scale where inhibition reaches its midpoint. With `O=C(NCCCn1ccnc1)C1(O)c2ccccc2-c2ccccc21` [3-36], the 50% inhibitory concentration (IC50) was in the range of 20 to 50 µM.

The series is the same for the next values; noted with them: Human immunodeficiency virus 1, read-out: Infectivity IC50, HeLa-CD4-LTR-LacZ; analogs of TT-44856 (Table 3).
In the case of `O=C(NCCCn1ccnc1)C1c2ccccc2-c2ccccc21` [3-35], the IC50 lay in the range of 50 to 100 µM. `O=C(NCCCn1ccnc1)c1cc2cccnc2[nH]1` [3-37]: the IC50 was greater than 100 µM. The same measure, in the same setting: the result for `O=C(NCCCn1ccnc1)c1cc(O)c2cc(Cl)ccc2n1` [3-38] reads greater than 100 µM; that for `O=C(NCCCn1ccnc1)c1cc(Cl)nc2ccccc12` [3-39], greater than 100 µM; that for `O=C(Cc1c(Cl)cccc1Cl)NCCCn1ccnc1` [Z30217435], greater than 100 µM. The same measure, in the same setting: the result for `O=C(Cc1cccc(C(F)(F)F)c1)NCCCn1ccnc1` [Z30217436] reads greater than 100 µM; that for `O=C(CC(c1ccccc1)c1ccccc1)NCCCn1ccnc1` [Z30217483], greater than 100 µM. Same read-out and setting: next, `CNc1ccccc1CC(=O)NCCCn1ccnc1` [Z31794405]: greater than 100 µM; `O=C(Cc1ccc2ccccc2c1)NCCCn1ccnc1` [Z31795124]: greater than 100 µM. On to `O=C(Cc1cccc2ccccc12)NCCCn1ccnc1` [Z31795406], for which the IC50 is greater than 100 µM. As to `O=C(NCCCn1ccnc1)c1ccc2ccccc2c1` [Z31795639], the IC50 is greater than 100 µM.

Take `O=C(NCCCn1ccnc1)c1ccc(-c2ccccc2)cc1` [Z31795699]: the half-maximal inhibitory concentration (IC50) was greater than 100 µM.

`O=C(Cc1ccc(F)cc1)NCCCn1ccnc1` [Z31795779]: the IC50 was greater than 100 µM. The same measure, in the same setting: next, `O=C(Cc1ccccc1F)NCCCn1ccnc1` [Z31795827]: greater than 100 µM; `COc1cccc(CC(=O)NCCCn2ccnc2)c1` [Z31796092]: greater than 100 µM; `O=C(Cc1cccc(F)c1)NCCCn1ccnc1` [Z31796183]: greater than 100 µM. Consider `O=C(Cc1ccccc1Cl)NCCCn1ccnc1` [Z31796195], for which the IC50 is greater than 100 µM. On the same count and under the same terms, the result for `O=C(Cc1ccc2c(c1)CCC2)NCCCn1ccnc1` [Z51979499] reads greater than 100 µM; that for `O=C(COC(c1ccccc1)c1ccccc1)NCCCn1ccnc1` [Z51979572], greater than 100 µM; that for `Cc1ccccc1CC(=O)NCCCn1ccnc1` [Z51979592], greater than 100 µM.

As to `O=C(NCCCn1ccnc1)c1ccc(Oc2ccccc2)cc1` [Z56813845], the IC50 was greater than 100 µM. `Cc1ccc(CC(=O)NCCCn2ccnc2)cc1` [Z100612606]: the IC50 was greater than 100 µM.

With `CC(CNC(=O)CCn1cnc2ccccc21)(c1ccccc1)c1ccccc1` [Z119886832], the IC50 was greater than 100 µM. Take `Cc1ccc(CCC(=O)NCCCn2ccnc2)cc1` [Z196426172]: the concentration for half-maximal inhibition (IC50) is greater than 100 µM.

For the compound `CC(CNC(=O)CCn1cncn1)(c1ccccc1)c1ccccc1` [Z221503086], the IC50 is greater than 100 µM.

Regarding `O=C(Cc1ccc(C(F)(F)F)cc1)NCCCn1ccnc1` [Z236749082], the IC50 is greater than 100 µM. The same measure, in the same setting: the result for `O=C(NCCCn1ccnc1)N(Cc1ccccc1)Cc1ccccc1` [Z991981670] reads greater than 100 µM; that for `CC(C(=O)NCCCn1ccnc1)c1c(Cl)cccc1Cl` (stereo not drawn) [Z1004969394], greater than 100 µM; that for `CC(C)(C(=O)NCCCn1ccnc1)c1cccc(C(F)(F)F)c1` [Z1053536312], greater than 100 µM. For the compound `Cc1nccn1CCCNC(=O)C(C)(C)c1ccccc1Cl` [Z1119105307], the IC50 is greater than 100 µM.

As to `CCC(=O)NC(C(=O)NCCCn1ccnc1)c1ccccc1` (stereo not drawn) [Z1207330250], the IC50 is greater than 100 µM. As for `CC(CNC(=O)Cc1c(F)cccc1Cl)Cn1ccnc1` (stereo not drawn) [Z1250741002], the half-inhibitory concentration (IC50) is greater than 100 µM.

Staying with this series, now noted: Human immunodeficiency virus 1, read-out: Infectivity IC50, HeLa-CD4-LTR-LacZ; analogs of TT-44863 (Table 2).
`COc1ccc(C(F)(F)F)cc1NC(=O)C(C)n1cc(C(F)(F)F)cc(-c2ccccc2)c1=O` (stereo not drawn): the IC50 was greater than 100 µM.

Tested on in another series: not listed separately
Briefly: Cytotoxicity assay, Cell-Titer-Glo, HeLa-CD4-LTR-LacZ. The conditions noted are these: human, hela-cd4-ltr-lacz cells. As to the method: as §1
In general, CC50 refers to the concentration giving 50% cytotoxicity. A low value points to harm at low concentration. Take `O=C(NCCCn1ccnc1)C1(O)c2ccccc2-c2ccccc21` [3-36]: the CC50 was greater than 100 µM.

The same series, now with this note: human, hela-cd4-ltr-lacz cells, Infectivity CC50, HeLa-CD4-LTR-LacZ; analogs of TT-44856 (Table 3).
With `O=C(NCCCn1ccnc1)c1ccc2ccccc2c1` [3-34], the CC50 was greater than 100 µM. Regarding `O=C(NCCCn1ccnc1)C1c2ccccc2-c2ccccc21` [3-35], the CC50 was greater than 100 µM.

`O=C(NCCCn1ccnc1)c1cc2cccnc2[nH]1` [3-37] came in with a CC50 greater than 100 µM. The same measure, in the same setting: the result for `O=C(NCCCn1ccnc1)c1cc(O)c2cc(Cl)ccc2n1` [3-38] reads greater than 100 µM. In turn, `O=C(NCCCn1ccnc1)c1cc(Cl)nc2ccccc12` [3-39] had a CC50 greater than 100 µM. Consider `CC(C)(C(=O)NCCCn1ccnc1)c1cccc(C(F)(F)F)c1` [compound 46606], for which the CC50 is greater than 100 µM.

The same series, now with this note: human, hela-cd4-ltr-lacz cells, Infectivity CC50, HeLa-CD4-LTR-LacZ; analogs of TT-44863 (Table 2).
In turn, `COc1ccc(C(F)(F)F)cc1NC(=O)C(C)n1cc(C(F)(F)F)cc(-c2ccccc2)c1=O` (stereo not drawn) returned a CC50 greater than 100 µM.
